Laboratory results from patent US20020198161A1, “THERAPEUTIC USES OF ANTIOXIDANTS” (priority 1997, published 2002).
“Also recorded” adds a separate entry of the source.

Key:
tMEF p53+/+ cells [1] = assay: Apoptosis / viability in E1A/Ha-ras-transformed MEF (tMEF p53+/+); assay type: cell-based, mouse; conditions: for apoptosis in E1A/Ha-ras transformed cells (viability, DNA fragmentation, flow cytometry): 50 μM DMP, 20 mM OTC, 24-48 h; for effect on cell viability (trypan blue exclusion) / apoptosis (DNA analysis): p53+/+ tMEF; for effect on cell viability (trypan blue exclusion): 48 h, tocopherol acetate 200 μM, Trolox 200 μM, BHA 100 μM; for apoptosis (DNA analysis): chain-breaking antioxidants
Experimental: Cell Lines. MEF primary mouse embryo fibroblast cells (passage <5) and E1A/Ha-ras-transformed MEF were as in Lowe (18). […] The (Rostein, J. B. et al., 1988, Mutation Research 202:421-427) 1 mouse embryo fibroblast cell line was as in Levine (Harney, D. M. et al., 1991, Genes Dev. 5:2375-2385). BALB/c 3T3 A31 cells were obtained from the American Type Culture Collection (Bethesda, Md.). 308 papilloma cells were maintained in 0.05 mM Ca2+ EMEM medium with 10% fetal bovine serum, and all other cells were grown in DMEM medium with 10% heat-inactivated fetal bovine serum. Cell culture confluence was maintained below 80%.
(§1) Chemicals and Cell Treatments. All chemicals were obtained from Sigma, except for Trolox which was purchased from Aldrich. These compounds were freshly dissolved in medium and adjusted to neutral pH if necessary, or (for vitamin E acetate, Trolox, and BHA) first dissolved in ethanol and added to the medium. Cell viability was determined by trypan blue exclusion as a measure of cell death independent of any growth suppression by p53.
(§2) Apoptosis Assays. For fixed cells, apoptosis-associated DNA strand breaks were visualized by fluorescent in situ end-labeling as previously described (Ziegler, A. et al., 1994, Nature 372:773-776). For isolated DNA, DNA fragmentation analysis was performed (Lowe, S. W. et al., 1993, Cell 74:957-967).
(§3) For flow cytometry analysis, approximately 10^6 cells per sample were washed with ice-cold PBS and fixed in 95% ethanol. Cells were then resuspended in 1 mg/ml RNase (Sigma) for 30 min at 37° C. and stained with 0.05 mg/ml propidium iodide (Sigma) for 1 h on ice. Flow cytometric analysis was performed with a FACS Vantage flow cytometer (Becton-Dickinson). Cells were excited at 488 nm and the emission was detected through a 630/22 nm band pass filter. A minimum of 10,000 cells were analyzed for each sample. Cell cycle analysis was performed using the Modfit 5.2 software (Verity Software House). […] Cellular debris was gated out using the electronic threshold.

MEF p53+/+ cells = assay: Apoptosis / viability in normal primary MEF (MEF p53+/+); assay type: cell-based, mouse; conditions: for apoptosis in normal counterparts: normal MEF, 50 μM DMP, 20 mM OTC
Text: (§4) Cell Lines. MEF primary mouse embryo fibroblast cells (passage <5) and E1A/Ha-ras-transformed MEF were as in Lowe (18). The 308 papilloma cell line, which has a mutant Ha-ras allele (Strickland, J. E. et al., 1988, Cancer Res. 48) and wild-type p53 (Liu, M. et al., 1995, Oncogene 10:1955-1960) were also utilized. The (Rostein, J. B. et al., 1988, Mutation Research 202:421-427) 1 mouse embryo fibroblast cell line was as in Levine (Harney, D. M. et al., 1991, Genes Dev. 5:2375-2385). BALB/c 3T3 A31 cells were obtained from the American Type Culture Collection (Bethesda, Md.). 308 papilloma cells were maintained in 0.05 mM Ca2+ EMEM medium with 10% fetal bovine serum, and all other cells were grown in DMEM medium with 10% heat-inactivated fetal bovine serum. Cell culture confluence was maintained below 80%.
as §1, §2, §3

[2] = test system: p53-/- tMEF and MEF cells; assay: Apoptosis / viability in transformed and normal primary cells from p53-/- null mice; assay type: cell-based, mouse; conditions: for p53 requirement of apoptosis induction: p53-/- versus p53+/+ transformed MEF
Text: as §4, §1, §2

[3] = test system: p53+/+ colorectal carcinoma cell line RKO; assay: Apoptosis in colorectal carcinoma cell line RKO; assay type: cell-based; conditions: human p53+/+ RKO cells
Experimental: as §2

tMEF p53+/+ cells [4] = assay: GSH and total thiols in tMEF p53+/+ cells (GSH-400 kit); assay type: cell-based, mouse; conditions: 20 μM BSO 1 h preincubation then 20 μM BSO + 20 mM NAC 5 h
Experimental: FIG. 6. Analysis of GSH, total thiols, and viability in tMEF p53+/+ cells treated with BSO and/or NAC. Cells treated with both compounds were preincubated with medium containing 20 μM BSO for 1 h and then treated with medium containing 20 μM BSO and 20 mM NAC for 5 h (GSH and thiols) or for 24 h (viability).
Measurement of GSH and Total Thiols. Cells (4×106) were harvested from each sample. The GSH-400 kit (R & D Systems) was used following the manufacturer's instructions.

308 papilloma cells [5] = assay: Cell viability by trypan blue exclusion in 308 papilloma cells; assay type: cell-based, murine; conditions: NAC dose range
Text: as §4, §1

308 papilloma cells [6] = assay: Apoptosis-associated DNA strand breaks, fluorescent in situ end-labeling, 308 cells; assay type: cell-based, murine; conditions: 20 mM NAC, 24 h
Text: as §4, §2

p53 protein [7] = assay: p53 protein level in 308 cells (Western blot); assay type: cell-based, murine; conditions: dose-dependent, within 3 to 8 hours
Text: as §4
(§5) Northern and Western Blot Analysis. Northern and Western blot analysis were performed as previously described (Liu, M. et al., 1995, Oncogene 10:1955-1960).

p53 mRNA = p53 mRNA steady-state level in 308 cells (Northern blot); assay type: cell-based, murine; conditions: 20 mM NAC, 5 h
Text: as §4, §5

p53 protein [8] = assay: p53 protein synthesis rate in 308 cells (35S-methionine labeling); assay type: cell-based, murine; conditions: 20 mM NAC, 5 h post-treatment
Experimental: Analysis of p53 Protein Synthesis. Cultures of 308 cells were treated in the absence or presence of 20 mM NAC. At 4.5 h post-treatment, cells were incubated with methionine-free medium containing 2% dialyzed and chelexed fetal bovine serum for 0.5 h. At 5 h post-treatment, biosynthetic labeling was initiated by adding 200 μCi of ^35S-methionine per ml of methionine-free medium. The labeling was terminated at 5, 10, or 15 min. Throughout the experiment, 20 mM NAC was included in the group of NAC-treated cells. Cells were then washed twice with 10 ml of ice-cold PBS, scraped, and pelleted by centrifugation at 1500 rpm at 4° C. for 5 min. The supernatant was removed, and the cell pellet was lysed in ice-cold cell lysis buffer (0.5% Triton X-100, 300 mM NaCl, 50 mM Tris-HCl, pH 7.4, 10 μg/ml leupeptin, 0.1 mM phenylmethylsulfonyl fluoride). Aliquots of cell lysate containing equal amounts of protein (30 μg) were subjected to immunoprecipitation analysis with anti-p53 antibody PAb122 (25) and Protein A-agarose (GIBCO-BRL). The immunoprecipitated proteins were resolved on a 10% SDS-PAGE gel. The levels of synthesized p53 protein were then determined by densitometric scanning using a Hewlett-Packard ScanJet 4P Scanner and the NIH image 1.59 analysis software.

p53 = p53 induction in BALB/c 3T3 A31 fibroblast cell line; assay type: cell-based, murine; conditions: BALB/c 3T3 A31 cells
Text: as §4, §5

p53 protein [9] = assay: p53 induction in normal MEF p53+/+ cells (immunohistochemical staining); assay type: cell-based, mouse; conditions: 20 mM NAC, 5 h
Experimental: FIGS. 2A-2C. p53-dependent apoptosis by NAC is selective for transformed cells. FIG. 2A: viability of normal (MEF) and transformed (tMEF) cells measured by trypan blue exclusion after treatment with NAC for 24 h. FIG. 2B: analysis of DNA fragmentation from tMEF cells exposed to NAC. FIG. 2C: immunohistochemical staining of p53 protein in p53+/+ MEF cells after 5 h exposure to 20 mM NAC.
as §4

DNA = conditions: literature references; cited from earlier work

SMILES | apoptosis in E1A/Ha-ras transformed cells (viability, DNA fragmentation, flow cytometry) (tMEF p53+/+ cells [1]; transformed MEF) | apoptosis in normal counterparts (MEF p53+/+ cells) | p53 requirement of apoptosis induction [2] | apoptosis induction [3] | effect on cell viability (trypan blue exclusion) (tMEF p53+/+ cells [1]) | apoptosis (DNA analysis) (tMEF p53+/+ cells [1]) | also measured
O=C(O)CCCC[C@@H]1CCSS1 (racemic) [lipoic acid] | behaved similarly | behaved similarly | required p53 | induced apoptosis | – | – | –
COc1ccc(O)c(C(C)(C)C)c1 [BHA] | – | – | – | – | little effect on cell viability; also recorded: do not induce cell death | no apoptosis occurred | –
CCCCS(=N)(=O)CCC(N)C(=O)O [BSO, L-buthionine sulfoximine] | – | – | – | – | – | – | effect on NAC-induced apoptosis (viability) (tMEF p53+/+ cells [1]; tMEF p53+/+, 20 μM BSO + 20 mM NAC 24 h): did not block NAC-induced apoptosis; also recorded: cannot block NAC-induced apoptosis; effect on induction of cellular GSH by NAC (tMEF p53+/+ cells [4]): completely blocks induction of cellular GSH by NAC; also recorded: inhibits cellular GSH elevation by NAC; effect on induction of total thiols by NAC (tMEF p53+/+ cells [4]): only partially blocking the induction of total thiols
OCC(S)CS (centres unmarked) [DMP, 2,3-dimercaptopropanol] | selectively induced apoptosis | not in their normal counterparts | required p53 | induced apoptosis | – | – | doses at which active (apoptosis induction) (tMEF p53+/+ cells [1]; transformed MEF): ≥ 50 µM
CC(=O)N[C@@H](CS)C(=O)O [NAC, N-acetylcysteine] | – | – | – | induced apoptosis | – | – | cell death (cell viability by trypan blue exclusion) (308 papilloma cells [5]): dose-dependent cell death; in situ end-labeling of DNA strand-breaks (apoptosis) (308 papilloma cells [6]): showing in situ end-labeling of DNA strand-breaks; NAC-induced apoptosis (viability, DNA fragmentation) (tMEF p53+/+ cells [1]; tMEF p53+/+, NAC 24 h): sensitive to NAC-induced apoptosis; NAC-induced apoptosis (viability) (MEF p53+/+ cells; normal MEF p53+/+, NAC 24 h): strikingly resistant; NAC-induced apoptosis (viability) ([2]; transformed and normal primary cells from p53-/- null mice, NAC 24 h): deficient in apoptosis induced by NAC; increase of p53 protein levels (p53 protein [7]): 5- to 10 fold; steady-state level of p53 mRNA vs control (p53 mRNA): no major difference; elevation of biosynthetic rate of p53 protein (p53 protein [8]): ~5 fold; p53 induction (p53): induced p53; p53 induction (p53 protein [9]): p53 was induced; induction of DNA damage (DNA): does not induce DNA damage
O=C1N[C@H](C(=O)O)CS1 [OTC, L-2-oxo-4-thiazolidinecarboxylate] | selectively induced apoptosis | not in their normal counterparts | required p53 | induced apoptosis | – | – | –
Cc1c(C)c2c(c(C)c1O)CCC(C)(C(=O)O)O2 (centres unmarked) [Trolox] | – | – | – | – | little effect on cell viability; also recorded: do not induce cell death | no apoptosis occurred; also recorded: did not induce p53-dependent apoptosis | –
CC(=O)Oc1c(C)c(C)c2c(c1C)CCC(C)(CCC[C@H](C)CCC[C@H](C)CCCC(C)C)O2 (some centres unmarked) [vitamin E acetate, tocopherol acetate] | – | – | – | – | little effect on cell viability | no apoptosis occurred; also recorded: did not induce p53-dependent apoptosis | effect on cell viability (trypan blue exclusion) (tMEF p53+/+ cells [1]; listed as tocopherol acetate): do not induce cell death
